Experimental data published in ChEMBL document CHEMBL1155000, “Discovery of a novel series of Notch-sparing gamma-secretase inhibitors” (Bioorg Med Chem Lett, 2008).

Tests used:
[1] = Selectivity ratio of EC50 for gamma-secretase to EC50 for mouse notch
[2] = Inhibition of gamma-secretase expressed in CHO cells expressing wild type human recombinant APP assessed as reduction in amyloid beta40 production
[3] = (§1) Inhibition of mouse notch expressed in CHO cells assessed as transactivation of soluble alkaline phosphatase reporter system; type: cell-based
CHO = assay: as §1; type: cell-based

Compound	EC50 [2] [µM]	also measured
C[C@H](c1ccc(F)cc1CCCC(=O)O)N(c1cc(F)ccc1F)S(=O)(=O)c1ccc(Cl)cc1	0.007	Ratio EC50 [1]: 15
CCCNC(=O)OC[C@@H](C)N(c1cc(Cl)ccc1CO)S(=O)(=O)c1ccc(Cl)cc1	0.085	–
CC[C@H](C)[C@@H](CO)NS(=O)(=O)c1ccc(Cl)cc1	5.45	EC50 [3]: 20 µM
CC[C@H](C)[C@@H](CO)NS(=O)(=O)c1ccc(S(C)(=O)=O)cc1	> 100	–
CC[C@H](C)[C@@H](CO)NS(=O)(=O)c1ccc(F)cc1	4.24	–
CC(C)[C@@H](CO)NS(=O)(=O)c1ccc(Cl)cc1	4.58	–
CC[C@H](C)[C@@H](CO)NS(=O)(=O)c1ccc(C(C)=O)cc1	6.02	–
CC[C@H](C)[C@@H](CO)NS(=O)(=O)c1ccc(C)cc1	14.3	–
CC[C@@H](CO)NS(=O)(=O)c1ccc(Cl)cc1	> 100	–
CC(C)C[C@@H](CO)NS(=O)(=O)c1ccc(Cl)cc1	15.3	–
CC[C@H](C)[C@@H](CO)NS(=O)(=O)c1cccc(Cl)c1	18.3	–
O=S(=O)(N[C@H](CO)C1CCCCC1)c1ccc(Cl)cc1	1.12	–
O=S(=O)(N[C@H](CO)c1ccccc1)c1ccc(Cl)cc1	68.8	–
CC[C@H](C)[C@@H](CO)NS(=O)(=O)c1cc(Cl)ccc1Cl	54.8	–
CC[C@H](C)[C@H](NS(=O)(=O)c1ccc(Cl)cc1)C(C)O (some centres undefined)	49.3	–
CC[C@H](C)[C@@H](CO)NS(=O)(=O)c1ccc(Br)cc1	2.21	EC50 [3]: 20 µM
CC[C@H](C)[C@@H](CO)NS(=O)(=O)c1ccc(C#N)cc1	> 100	–
CC[C@H](C)[C@@H](CO)NS(=O)(=O)c1ccc(OC(F)(F)F)cc1	23.5	–
CC[C@H](C)[C@@H](CO)NCc1ccc(Cl)cc1	> 100	–
CCC(CC)[C@@H](CO)NS(=O)(=O)c1ccc(Cl)cc1	0.294	EC50 [3]: 4.09 µM; Ratio EC50 [1]: 13.9
CC[C@H](C)[C@@H](CO)NS(=O)(=O)c1ccc(Cl)c(Cl)c1	37	–
CC(C)(C)[C@@H](CO)NS(=O)(=O)c1ccc(Cl)cc1	29.1	–

Further lines, with some results ahead:

EC50 [2] [µM]	Compound	also measured
0.0003	C[C@H](NC(=O)[C@@H](O)c1cc(F)cc(F)c1)C(=O)N[C@@H]1C(=O)N(C)N=Cc2ccccc21	Ratio EC50 (CHO): 0.5
56.6	CC[C@H](C)[C@@H](CO)NS(=O)(=O)c1ccccc1Cl	–
0.758	CC[C@@H](C)[C@@H](CO)NS(=O)(=O)c1ccc(Cl)cc1	–
7.84	CC[C@H](C)[C@@H](CO)NS(=O)(=O)c1ccc(Cl)c(F)c1	–
20.9	CC[C@H](C)[C@@H](CO)NS(=O)(=O)c1ccc([N+](=O)[O-])cc1	–
0.028	CC(C)[C@H](O)C(=O)N[C@@H](C)C(=O)N[C@@H]1C(=O)N(C)CCc2ccccc21	EC50 [3]: 0.063 µM
> 100	C[C@@H](CO)NS(=O)(=O)c1ccc(Cl)cc1	–
12.2	CCOC(=O)N1CCC(c2ccccc2)(S(=O)(=O)c2ccc(Cl)cc2)CC1	EC50 [3]: 0.746 µM; Ratio EC50 [1]: 8.8
> 100	CC[C@H](C)[C@@H](CO)NC(=O)c1ccc(Cl)cc1	–
> 100	CC[C@H](C)[C@H](NS(=O)(=O)c1ccc(Cl)cc1)C(C)(C)O	–
4.15	CC[C@H](C)[C@@H](CO)NS(=O)(=O)c1ccccc1	–
23.5	CC[C@H](C)[C@@H](CO)NS(=O)(=O)c1cc(Cl)cc(Cl)c1	–
4.27	CC[C@H](C)[C@@H](CO)NS(=O)(=O)c1cccc(Cl)c1Cl	–
> 100	CC[C@H](C)[C@@H](CO)NC(=O)Cc1ccc(Cl)cc1	–
47.3	CC[C@H](C)[C@@H](CO)NC(=O)Nc1ccc(Cl)cc1	–
> 30	CC[C@H](C)[C@@H](CO)NS(=O)(=O)Nc1ccc(Cl)cc1	–
13.1	CC[C@H](C)[C@@H](CO)NS(=O)(=O)c1ccc(C(F)(F)F)cc1	–
> 100	CC[C@H](C)[C@H](NS(=O)(=O)c1ccc(Cl)cc1)C(=O)O	–
